Results from US5034212A, “Method of imaging using a radioactive glucosamine derivative” (Nihon Medi-Physics Co., Ltd., priority 1989, dated 1991).
Values belong to the compound of their own block, whether it stands above or below them.

Columns and labels:
hexokinase = assay: Phosphorylation with hexokinase / inhibition of glucose phosphorylation; assay type: biochemical
[1] = Body distribution of BGA in mouse; assay type: in vivo
Swine liver esterase = assay: Enzymatic deesterification with swine liver esterase, TLC analysis; assay type: in vitro ADME; details: pH 7.4, 37° C.; for Proportion of peak component ABGA / Proportion of peak component BGA / Proportion of peak component I^- / Proportion of peak component Others: esterase 100 U
Description: Swine liver esterase (100 U) was added to phosphate buffer (pH 7.4), and ^125 I-ABGA (50 kBq) was added thereto, followed by incubation at 37° C. for a certain period of time. The reaction mixture was sampled, and ethanol was added thereto, followed by centrifugation.

[2] = Body distribution of ^125 I-ABGA in mouse; assay type: in vivo, ddY strain male mice; details: i.v.
[3] = Octanol/phosphate buffer distribution ratio (lipophilic property); assay type: physicochemical
Description: To a mixture of octanol (3 ml) and phosphate buffer (PBS) (3 ml), ^125 I-ABGA as obtained in Example 2 was added, followed by stirring and allowing to stand. The radioactivity of each layer was measured, and the distribution ratio was determined. The results are shown in Table 1, from which it is understood that ^125 I-ABGA is lypophilic.

[4] = Stability in buffer of pH 5, 7 or 9 at 37° C., TLC analysis; assay type: physicochemical
Description: A solution of ^125 I-ABGA in dimethylsulfoxide was added to a buffer of pH 5, 7 or 9 and incubated at 37° C. for a certain period of time.

brain = assay: Behavior in mouse: TLC of brain and blood homogenates after tail vein injection; assay type: in vivo, ddY strain male mice
Description: ^125 I-ABGA was injected into ddY strain male mice at the tail vein, and after a certain period of time, the mice were sacrificed. The blood was collected from the heart, and the brain was taken out. The blood and the brain were respectively admixed with 5% trichloroacetic acid (1 ml), homogenized and centrifuged at 3,000 rpm and at 0° C. for 10 minutes. The supernatant was analyzed by thin layer chromatography using a mixture of chloroform and methanol (7:3 by volume) as a developing solvent. The results are shown in FIGS. 1A and 1B of the accompanying drawings. In FIGS. 1A and 1B showing respectively the analytical results on the brain homogenate and the blood homogenate, the solid line, the dotted line and the solid-dot mixed line represent respectively the ones of 5 minutes, 60 minutes and 180 minutes after the administration.

Phosphorylation with hexokinase (hexokinase): not phosphorylated with hexokinase
Disappearance of radioactivity from brain ([1]; mouse): parallel to the blood clearance
Compound: O=C(N[C@H]1C(O)O[C@H](CO)[C@@H](O)[C@@H]1O)c1cccc(I)c1 (stereo partly drawn) [BGA, N-m-iodobenzoyl-D-glucosamine]
Inhibition to the ATP action (hexokinase): antagonistic inhibition to the ATP action
Inhibition to the phosphorylation of glucose (hexokinase): non-antagonistic inhibition to the phosphorylation of glucose
Passage through the blood-brain barrier ([1]; in vivo): can hardly pass through the blood-brain barrier (BBB) in vivo
Stomach accumulation as index of deiodization / stability in body ([1]; mouse): low in stomach accumulation as the index of deiodization and thus stable in a body

Compound: CC(=O)OC[C@H]1OC(OC(C)=O)[C@H](NC(=O)c2cccc([125I])c2)[C@@H](OC(C)=O)[C@@H]1OC(C)=O (stereo partly drawn) [^125 I-ABGA, ^125 I-labeled N-(m-iodobenzoyl)-1,3,4,6-tetra-O-acetyl-D-glucosamine]
Proportion of peak component ABGA (Swine liver esterase; 10 min): 0
Proportion of peak component BGA (Swine liver esterase; 10 min): 87.3 ± 3.1
Proportion of peak component I^- (Swine liver esterase; 10 min): 0.9 ± 0.5
Proportion of peak component Others (Swine liver esterase; 10 min): 10.6 ± 2.9
Proportion of peak component ABGA (Swine liver esterase; 60 min): 0
Proportion of peak component BGA (Swine liver esterase; 60 min): 54.5 ± 3.7
Proportion of peak component I^- (Swine liver esterase; 60 min): 6.5 ± 0.5
Proportion of peak component Others (Swine liver esterase; 60 min): 33.7 ± 2.4
Proportion of peak component ABGA (Swine liver esterase; 180 min): 0
Proportion of peak component BGA (Swine liver esterase; 180 min): 7.2 ± 2.2
Proportion of peak component I^- (Swine liver esterase; 180 min): 33.4 ± 1.6
Proportion of peak component Others (Swine liver esterase; 180 min): 42.9 ± 0.4
Enzymatic deesterification (Swine liver esterase; swine liver esterase): deesterified in a very short time to give N-m-iodobenzoyl-D-glucosamine (BGA)
Body distribution, Blood ([2]; 2 min): 5.16 ± 0.97 % dose/g organ
Body distribution, Brain ([2]; 2 min): 0.53 ± 0.14 % dose/g organ
Body distribution, Heart ([2]; 2 min): 4.88 ± 0.97 % dose/g organ
Body distribution, Intestine ([2]; 2 min): 3.94 ± 1.19 % dose/g organ
Body distribution, Kidney ([2]; 2 min): 14.87 ± 2.31 % dose/g organ
Body distribution, Liver ([2]; 2 min): 15.32 ± 4.43 % dose/g organ
Body distribution, Pancreas ([2]; 2 min): 4.54 ± 1.03 % dose/g organ
Body distribution, Stomach ([2]; 2 min): 1.87 ± 0.68 % dose/g organ
Body distribution, Blood ([2]; 5 min): 7.16 ± 0.13 % dose/g organ
Body distribution, Brain ([2]; 5 min): 0.55 ± 0.11 % dose/g organ
Body distribution, Heart ([2]; 5 min): 4.45 ± 0.52 % dose/g organ
Body distribution, Intestine ([2]; 5 min): 4.58 ± 0.60 % dose/g organ
Body distribution, Kidney ([2]; 5 min): 11.39 ± 3.08 % dose/g organ
Body distribution, Liver ([2]; 5 min): 12.85 ± 1.71 % dose/g organ
Body distribution, Pancreas ([2]; 5 min): 4.40 ± 0.28 % dose/g organ
Body distribution, Stomach ([2]; 5 min): 0.59 ± 0.23 % dose/g organ
Body distribution, Blood ([2]; 15 min): 6.64 ± 0.31 % dose/g organ
Body distribution, Brain ([2]; 15 min): 0.47 ± 0.06 % dose/g organ
Body distribution, Heart ([2]; 15 min): 3.35 ± 0.27 % dose/g organ
Body distribution, Intestine ([2]; 15 min): 5.89 ± 0.47 % dose/g organ
Body distribution, Kidney ([2]; 15 min): 7.00 ± 0.49 % dose/g organ
Body distribution, Liver ([2]; 15 min): 7.66 ± 0.86 % dose/g organ
Body distribution, Pancreas ([2]; 15 min): 3.16 ± 0.30 % dose/g organ
Body distribution, Stomach ([2]; 15 min): 1.88 ± 0.52 % dose/g organ
Body distribution, Blood ([2]; 30 min): 4.16 ± 2.42 % dose/g organ
Body distribution, Brain ([2]; 30 min): 0.43 ± 0.02 % dose/g organ
Body distribution, Heart ([2]; 30 min): 2.69 ± 0.20 % dose/g organ
Body distribution, Intestine ([2]; 30 min): 6.26 ± 0.96 % dose/g organ
Body distribution, Kidney ([2]; 30 min): 6.37 ± 3.04 % dose/g organ
Body distribution, Liver ([2]; 30 min): 5.82 ± 0.64 % dose/g organ
Body distribution, Pancreas ([2]; 30 min): 2.59 ± 0.13 % dose/g organ
Body distribution, Stomach ([2]; 30 min): 1.86 ± 0.13 % dose/g organ
Body distribution, Blood ([2]; 60 min): 3.67 ± 0.40 % dose/g organ
Body distribution, Brain ([2]; 60 min): 0.33 ± 0.05 % dose/g organ
Body distribution, Heart ([2]; 60 min): 1.87 ± 0.37 % dose/g organ
Body distribution, Intestine ([2]; 60 min): 6.88 ± 0.53 % dose/g organ
Body distribution, Kidney ([2]; 60 min): 3.81 ± 0.75 % dose/g organ
Body distribution, Liver ([2]; 60 min): 4.94 ± 0.90 % dose/g organ
Body distribution, Pancreas ([2]; 60 min): 2.10 ± 0.34 % dose/g organ
Body distribution, Stomach ([2]; 60 min): 1.74 ± 0.83 % dose/g organ
Body distribution, Blood ([2]; 180 min): 0.91 ± 0.55 % dose/g organ
Body distribution, Brain ([2]; 180 min): 0.19 ± 0.08 % dose/g organ
Body distribution, Heart ([2]; 180 min): 0.75 ± 0.34 % dose/g organ
Body distribution, Intestine ([2]; 180 min): 4.60 ± 2.84 % dose/g organ
Body distribution, Kidney ([2]; 180 min): 1.08 ± 0.67 % dose/g organ
Body distribution, Liver ([2]; 180 min): 2.25 ± 1.44 % dose/g organ
Body distribution, Pancreas ([2]; 180 min): 0.76 ± 0.35 % dose/g organ
Body distribution, Stomach ([2]; 180 min): 1.27 ± 0.80 % dose/g organ
Lipophilic property ([3]; octanol/PBS): lypophilic
Distribution ratio in PBS and octanol ([3]; pH 7.0): 189.0
Distribution ratio in PBS and octanol ([3]; pH 7.4): 193.8
Distribution ratio in PBS and octanol ([3]; pH 8.10): 206.5
Stability: peak component ABGA ([4]; 15 min, pH 5, 37° C.): 99.1
Stability: peak component I^- ([4]; 15 min, pH 5, 37° C.): 0
Stability: peak component Others ([4]; 15 min, pH 5, 37° C.): 0
Stability: peak component ABGA ([4]; 15 min, pH 7, 37° C.): 99.9
Stability: peak component I^- ([4]; 15 min, pH 7, 37° C.): 0
Stability: peak component Others ([4]; 15 min, pH 7, 37° C.): 0
Stability: peak component ABGA ([4]; 15 min, pH 9, 37° C.): 53.9
Stability: peak component I^- ([4]; 15 min, pH 9, 37° C.): 10.2
Stability: peak component Others ([4]; 15 min, pH 9, 37° C.): 31.5
Stability: peak component ABGA ([4]; 60 min, pH 5, 37° C.): 98.5
Stability: peak component I^- ([4]; 60 min, pH 5, 37° C.): 0
Stability: peak component Others ([4]; 60 min, pH 5, 37° C.): 0
Stability: peak component ABGA ([4]; 60 min, pH 7, 37° C.): 99.3
Stability: peak component I^- ([4]; 60 min, pH 7, 37° C.): 0
Stability: peak component Others ([4]; 60 min, pH 7, 37° C.): 0
Stability: peak component ABGA ([4]; 60 min, pH 9, 37° C.): 25.5
Stability: peak component I^- ([4]; 60 min, pH 9, 37° C.): 19.6
Stability: peak component Others ([4]; 60 min, pH 9, 37° C.): 49.0
Stability: peak component ABGA ([4]; 180 min, pH 5, 37° C.): 98.4
Stability: peak component I^- ([4]; 180 min, pH 5, 37° C.): 0
Stability: peak component Others ([4]; 180 min, pH 5, 37° C.): 0
Stability: peak component ABGA ([4]; 180 min, pH 7, 37° C.): 97.8
Stability: peak component I^- ([4]; 180 min, pH 7, 37° C.): 0.9
Stability: peak component Others ([4]; 180 min, pH 7, 37° C.): 0
Stability: peak component ABGA ([4]; 180 min, pH 9, 37° C.): 2.2
Stability: peak component I^- ([4]; 180 min, pH 9, 37° C.): 31.1
Stability: peak component Others ([4]; 180 min, pH 9, 37° C.): 57.5
Stability at high pH ([4]; high pH (pH 9), 37° C.): hydrolyzed to BGA with deiodization at high pH
Stability at other pH ([4]; pH 5 and 7, 37° C., up to 3 hours): stable (i.e. neither hydrolyzed nor deiodized) even after 3 hours at other pH

Clearance from the blood [2]: rapid clearance from the blood
Retention in the brain [2]: retention in the brain
Uptake in the brain in comparison with BGA [2]: higher uptake in the brain
TLC peak of ABGA over time (brain; mouse brain, 5 to 180 minutes): decreases with the lapse of time
Compound: CC(=O)OC[C@H]1OC(OC(C)=O)[C@H](NC(=O)c2cccc(I)c2)[C@@H](OC(C)=O)[C@@H]1OC(C)=O (stereo partly drawn) [ABGA, N-(m-iodobenzoyl)-1,3,4,6-tetra-O-acetyl-D-glucosamine]
Brain/blood ratio with lapse of time [2]: increase of the brain/blood ratio with the lapse of time
TLC peaks in brain (brain; mouse brain, 5 minutes after i.v. administration): the peaks of ABGA and BGA appear in brain 5 minutes after the administration
Transfer to brain and deesterification (brain; mouse, i.v.): transferred to brain at the initial stage of administration and thereafter deesterified, whereby it behaves as BGA
